From PMC7531004, “Discovery of gramicidin A analogues with altered activities by multidimensional screening of a one-bead-one-compound library” (Nature Communications, 2020)
Where a SMILES comes first, the peptide text is derived from it. [ ]: non-standard residue; d: D form. The star is where a group is joined. NHCH2CH2OH = OCCN*; For = O=C*

How the values were obtained:
[1] = H+/Na+ transport assay of bead-derived peptides (one-point); assay type: biochemical; parameters: key: relative activity; mean of two control wells = 1.00; conditions: bead-derived peptide solution, EYPC/EYPG LUVs;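 note: relative to parent gramicidin A activity set to 1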
Outline: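 Values are normalized fluorescence, with Triton X-100 defining 100% and untreated LUVs 0%, and the two control wells averaging 1.00. Vesicles carried 1.0 mM pyranine and included egg yolk phosphatidylglycerol. Peptides were incubated with them 30 min at room temperature.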

[2] = tested on: P388 mouse leukemia cells; conditions: 92 h
Outline: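 First, library peptide stocks are diluted 250-fold in RPMI1640 with 10% heat-inactivated FBS. Next, they are mixed with P388 cells to give 1 × 10^4 cells/mL and incubated 92 h at 37 °C, 5% CO2. Finally, viability (%) is scored by WST-1 absorbance at 415 nm.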

[3] = tested on: Streptococcus pyogenes SSI-9; test: Antibacterial activity assay of bead-derived peptides (three concentrations); assay type: cell-based; parameters: key: +++: inhibition by the 640-fold diluted peptide solution; ++: inhibition by the 160-fold diluted solution; +: inhibition by the 40-fold diluted solution; -: no inhibition; conditions: S. pyogenes, bead-derived peptide solution, three concentrations
Outline: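 Bead-derived library peptide stocks in DMSO were tested undiluted and after 4- and 16-fold DMSO dilution against S. pyogenes SSI-9 (2 × 10^5 CFU/well) in cation-adjusted Mueller Hinton Broth with 5% laked horse blood. After 18 h at 37 °C, wells were scored for precipitation of grown cells.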

Row | SMILES | H+/Na+ transport activity normalized against the value of 1 (1.00) [1] | cell viability/% [2] | antibacterial activity [3]
1 | CC(C)C[C@@H](NC(=O)[C@H](C)NC(=O)CNC(=O)[C@@H](NC=O)C(C)C)C(=O)N[C@@H](C)C(=O)N[C@H](CC(C)C)C(=O)N[C@H](C(=O)N[C@@H](C(=O)N[C@@H](Cc1c[nH]c2ccccc12)C(=O)N[C@@H](C(=O)N[C@@H](Cc1c[nH]c2ccccc12)C(=O)N[C@@H](C(=O)N[C@@H](Cc1c[nH]c2ccccc12)C(=O)N[C@H](CC(C)C)C(=O)N[C@@H](Cc1c[nH]c2ccccc12)C(=O)NCCO)C(C)C)[C@H](C)O)C(C)C)C(C)C [compound 10542] (For-VGA[dL]A[dL]V[dV]W[dT]W[dV]W[dL]W-NHCH2CH2OH) | 1.02 | 100.0% | -
2 | CC(C)C[C@@H](NC(=O)[C@H](C)NC(=O)CNC(=O)[C@@H](NC=O)C(C)C)C(=O)N[C@@H](C)C(=O)N[C@H](CC(C)C)C(=O)N[C@H](C(=O)N[C@H](CC(C)C)C(=O)N[C@@H](Cc1c[nH]c2ccccc12)C(=O)N[C@@H](C(=O)N[C@@H](Cc1c[nH]c2ccccc12)C(=O)N[C@@H](C(=O)N[C@@H](Cc1c[nH]c2ccccc12)C(=O)N[C@@H](C(=O)N[C@@H](Cc1c[nH]c2ccccc12)C(=O)NCCO)C(C)C)C(C)C)C(C)C)C(C)C [compound 11323] (For-VGA[dL]A[dL]V[dL]W[dV]W[dV]W[dV]W-NHCH2CH2OH) | 1.02 | 5.2% | -
3 | CC(C)C[C@@H](NC(=O)[C@H](C)NC(=O)[C@H](NC(=O)[C@H](C)NC(=O)CNC(=O)[C@@H](NC=O)C(C)C)C(C)C)C(=O)N[C@H](C(=O)N[C@@H](C(=O)N[C@@H](Cc1c[nH]c2ccccc12)C(=O)N[C@@H](C(=O)N[C@@H](Cc1c[nH]c2ccccc12)C(=O)N[C@H](CC(C)C)C(=O)N[C@@H](Cc1c[nH]c2ccccc12)C(=O)N[C@H](CC(C)C)C(=O)N[C@@H](Cc1c[nH]c2ccccc12)C(=O)NCCO)[C@H](C)O)[C@H](C)O)C(C)C [compound 10517] (For-VGA[dV]A[dL]V[dT]W[dT]W[dL]W[dL]W-NHCH2CH2OH) | 1.05 | 100.0% | -
4 | CC(C)C[C@@H](NC(=O)[C@H](C)NC(=O)[C@H](NC(=O)[C@H](C)NC(=O)CNC(=O)[C@@H](NC=O)C(C)C)C(C)C)C(=O)N[C@H](C(=O)N[C@@H](C(=O)N[C@@H](Cc1c[nH]c2ccccc12)C(=O)N[C@@H](C(=O)N[C@@H](Cc1c[nH]c2ccccc12)C(=O)N[C@H](CC(C)C)C(=O)N[C@@H](Cc1c[nH]c2ccccc12)C(=O)N[C@H](CC(C)C)C(=O)N[C@@H](Cc1c[nH]c2ccccc12)C(=O)NCCO)C(C)C)C(C)C)C(C)C [compound 5463] (For-VGA[dV]A[dL]V[dV]W[dV]W[dL]W[dL]W-NHCH2CH2OH) | 1.11 | 100.0% | ++
5 | CNC(=O)C[C@@H](NC(=O)[C@@H](NC(=O)[C@H](NC(=O)[C@H](C)NC(=O)[C@H](NC(=O)[C@H](C)NC(=O)CNC(=O)[C@@H](NC=O)C(C)C)C(C)C)C(C)C)C(C)C)C(=O)N[C@@H](Cc1c[nH]c2ccccc12)C(=O)N[C@@H](C(=O)N[C@@H](Cc1c[nH]c2ccccc12)C(=O)N[C@H](CC(C)C)C(=O)N[C@@H](Cc1c[nH]c2ccccc12)C(=O)N[C@H](CC(C)C)C(=O)N[C@@H](Cc1c[nH]c2ccccc12)C(=O)NCCO)C(C)C [compound 2898] (For-VGA[dV]A[dV]V[dD](NHMe)W[dV]W[dL]W[dL]W-NHCH2CH2OH) | 1.13 | 100.0% | -
6 | CC(C)C[C@@H](NC(=O)[C@H](C)NC(=O)[C@H](NC(=O)[C@H](C)NC(=O)CNC(=O)[C@@H](NC=O)C(C)C)[C@H](C)O)C(=O)N[C@H](C(=O)N[C@H](CC(C)C)C(=O)N[C@@H](Cc1c[nH]c2ccccc12)C(=O)N[C@@H](C(=O)N[C@@H](Cc1c[nH]c2ccccc12)C(=O)N[C@H](CC(C)C)C(=O)N[C@@H](Cc1c[nH]c2ccccc12)C(=O)N[C@H](CC(C)C)C(=O)N[C@@H](Cc1c[nH]c2ccccc12)C(=O)NCCO)[C@H](C)O)C(C)C [compound 5215] (For-VGA[dT]A[dL]V[dL]W[dT]W[dL]W[dL]W-NHCH2CH2OH) | 1.33 | 100.0% | -
7 | CC(C)C[C@@H](NC(=O)[C@H](C)NC(=O)CNC(=O)[C@@H](NC=O)C(C)C)C(=O)N[C@@H](C)C(=O)N[C@@H](C(=O)N[C@H](C(=O)N[C@@H](C(=O)N[C@@H](Cc1c[nH]c2ccccc12)C(=O)N[C@H](CC(C)C)C(=O)N[C@@H](Cc1c[nH]c2ccccc12)C(=O)N[C@H](CC(C)C)C(=O)N[C@@H](Cc1c[nH]c2ccccc12)C(=O)N[C@@H](C(=O)N[C@@H](Cc1c[nH]c2ccccc12)C(=O)NCCO)C(C)C)[C@H](C)O)C(C)C)C(C)C [compound 13268] (For-VGA[dL]A[dV]V[dT]W[dL]W[dL]W[dV]W-NHCH2CH2OH) | 1.03 | 100.0% | +
8 | CNC(=O)C[C@@H](NC(=O)[C@H](Cc1c[nH]c2ccccc12)NC(=O)[C@H](NC(=O)[C@H](Cc1c[nH]c2ccccc12)NC(=O)[C@@H](CC(C)C)NC(=O)[C@H](Cc1c[nH]c2ccccc12)NC(=O)[C@@H](CC(C)C)NC(=O)[C@@H](NC(=O)[C@@H](CC(C)C)NC(=O)[C@H](C)NC(=O)[C@@H](CC(C)C)NC(=O)[C@H](C)NC(=O)CNC(=O)[C@@H](NC=O)C(C)C)C(C)C)C(C)C)C(=O)N[C@@H](Cc1c[nH]c2ccccc12)C(=O)NCCO [compound 2764] (For-VGA[dL]A[dL]V[dL]W[dL]W[dV]W[dD](NHMe)W-NHCH2CH2OH) | 1.12 | 75.7% | -
9 | CC(C)C[C@@H](NC(=O)[C@H](C)NC(=O)[C@H](NC(=O)[C@H](C)NC(=O)CNC(=O)[C@@H](NC=O)C(C)C)C(C)C)C(=O)N[C@H](C(=O)N[C@@H](C(=O)N[C@@H](Cc1c[nH]c2ccccc12)C(=O)N[C@H](CC(C)C)C(=O)N[C@@H](Cc1c[nH]c2ccccc12)C(=O)N[C@H](CC(C)C)C(=O)N[C@@H](Cc1c[nH]c2ccccc12)C(=O)N[C@@H](C(=O)N[C@@H](Cc1c[nH]c2ccccc12)C(=O)NCCO)C(C)C)C(C)C)C(C)C [compound 5872] (For-VGA[dV]A[dL]V[dV]W[dL]W[dL]W[dV]W-NHCH2CH2OH) | 1.02 | 9.9% | +
10 | CNC(=O)C[C@@H](NC(=O)[C@@H](NC(=O)[C@@H](CC(C)C)NC(=O)[C@H](C)NC(=O)[C@@H](CC(C)C)NC(=O)[C@H](C)NC(=O)CNC(=O)[C@@H](NC=O)C(C)C)C(C)C)C(=O)N[C@@H](Cc1c[nH]c2ccccc12)C(=O)N[C@@H](C(=O)N[C@@H](Cc1c[nH]c2ccccc12)C(=O)N[C@@H](C(=O)N[C@@H](Cc1c[nH]c2ccccc12)C(=O)N[C@H](CC(C)C)C(=O)N[C@@H](Cc1c[nH]c2ccccc12)C(=O)NCCO)C(C)C)C(C)C [compound 2951] (For-VGA[dL]A[dL]V[dD](NHMe)W[dV]W[dV]W[dL]W-NHCH2CH2OH) | 1.10 | 93.1% | -
11 | CC(C)C[C@@H](NC(=O)[C@@H](NC(=O)[C@H](NC(=O)[C@H](C)NC(=O)[C@H](NC(=O)[C@H](C)NC(=O)CNC(=O)[C@@H](NC=O)C(C)C)C(C)C)C(C)C)C(C)C)C(=O)N[C@@H](Cc1c[nH]c2ccccc12)C(=O)N[C@@H](C(=O)N[C@@H](Cc1c[nH]c2ccccc12)C(=O)N[C@@H](C(=O)N[C@@H](Cc1c[nH]c2ccccc12)C(=O)N[C@@H](C(=O)N[C@@H](Cc1c[nH]c2ccccc12)C(=O)NCCO)[C@H](C)O)C(C)C)C(C)C [compound 6781] (For-VGA[dV]A[dV]V[dL]W[dV]W[dV]W[dT]W-NHCH2CH2OH) | 1.04 | 100.0% | +
12 | CNC(=O)C[C@@H](NC(=O)[C@@H](NC(=O)[C@@H](CC(C)C)NC(=O)[C@H](C)NC(=O)[C@H](NC(=O)[C@H](C)NC(=O)CNC(=O)[C@@H](NC=O)C(C)C)C(C)C)C(C)C)C(=O)N[C@@H](Cc1c[nH]c2ccccc12)C(=O)N[C@H](CC(C)C)C(=O)N[C@@H](Cc1c[nH]c2ccccc12)C(=O)N[C@@H](C(=O)N[C@@H](Cc1c[nH]c2ccccc12)C(=O)N[C@H](CC(C)C)C(=O)N[C@@H](Cc1c[nH]c2ccccc12)C(=O)NCCO)C(C)C [compound 12687] (For-VGA[dV]A[dL]V[dD](NHMe)W[dL]W[dV]W[dL]W-NHCH2CH2OH) | 1.29 | 100.0% | -
13 | CC(C)C[C@@H](NC(=O)[C@H](C)NC(=O)[C@H](NC(=O)[C@H](C)NC(=O)CNC(=O)[C@@H](NC=O)C(C)C)C(C)C)C(=O)N[C@H](C(=O)N[C@@H](C(=O)N[C@@H](Cc1c[nH]c2ccccc12)C(=O)N[C@H](CC(C)C)C(=O)N[C@@H](Cc1c[nH]c2ccccc12)C(=O)N[C@H](CC(C)C)C(=O)N[C@@H](Cc1c[nH]c2ccccc12)C(=O)N[C@H](CC(C)C)C(=O)N[C@@H](Cc1c[nH]c2ccccc12)C(=O)NCCO)C(C)C)C(C)C [compound 10593] (For-VGA[dV]A[dL]V[dV]W[dL]W[dL]W[dL]W-NHCH2CH2OH) | 1.10 | 38.5% | +
